According to patent US20110224193A1, “INHIBITORS OF DIACYLGLYCEROL ACYLTRANSFERASE” (MERCK SHARP & DOHME CORP, priority 2008, published 2011):

Molecular target: T1, human DGAT1 enzyme (Homo sapiens, UniProt O75907)
T1 construct: made in house; host or cells: Sf9 insect cells (microsomes)
T1 sequence (O75907 1-488): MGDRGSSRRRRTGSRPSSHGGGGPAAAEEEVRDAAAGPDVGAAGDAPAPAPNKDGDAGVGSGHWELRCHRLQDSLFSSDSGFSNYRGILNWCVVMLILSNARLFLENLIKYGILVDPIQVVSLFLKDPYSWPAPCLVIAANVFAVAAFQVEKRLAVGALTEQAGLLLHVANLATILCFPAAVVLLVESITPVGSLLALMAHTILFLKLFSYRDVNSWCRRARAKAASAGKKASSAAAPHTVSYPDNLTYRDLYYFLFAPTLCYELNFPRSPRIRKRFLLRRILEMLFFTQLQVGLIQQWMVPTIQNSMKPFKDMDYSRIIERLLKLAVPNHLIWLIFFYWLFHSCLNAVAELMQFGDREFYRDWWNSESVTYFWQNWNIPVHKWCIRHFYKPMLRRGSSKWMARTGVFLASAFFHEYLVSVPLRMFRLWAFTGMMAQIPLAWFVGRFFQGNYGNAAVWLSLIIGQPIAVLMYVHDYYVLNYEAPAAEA
Experiment: in vitro DGAT1 inhibition assay (microsomes, [14C]-palmitoyl-CoA, SPA beads)
Format: biochemical
Settings: human DGAT1 expressed in Sf9 insect cell microsomes, 2 hours at room temperature; read-out: hDGAT IC50
Method: A useful assay to determine the DGAT inhibitory activity of the inventive compounds is described below:
The in vitro assay to identify DGAT1 inhibitors uses human DGAT1 enzyme expressed in Sf9 insect cells prepared as microsomes. The reaction is initiated by the addition of the combined substrates 1,2-dioleoyl-sn-glycerol and [^14C]-palmitoyl-Co A and incubated with test compounds and microsomal membranes for 2 hours at room temperature. The assay is stopped by adding 0.5 mg wheat germ agglutinin beads in assay buffer with 1% Brij-35 and 1% 3-cholamidopropyldimethyl-ammonio-1-propane sulfonate. Plates are sealed with TopSeal and incubated for 18 hours to allow the radioactive triglyceride product to come into proximity with the bead. Plates are read on a TopCount instrument.
Percent inhibition was calculated as the percent of (test compound inhibition minus non-specific binding) relative to (total binding minus non-specific binding). IC50 values were determined by curve fitting the data to a Sigmoidal dose-response in GraphPad Prism utilizing the following equation:
Y=A+(B−A)/(1+10̂((Log IC50−X))),
where A and B are the bottom and top of the curve (highest and lowest inhibition), respectively, and X is the logarithm of concentration.

Compound | IC50
O=C(Nc1ccc(N2CCC(n3c(=O)[nH]c4ccccc43)CC2)nc1)c1oc(-c2ccccc2)nc1C(F)(F)F [Compound 72] | 101 to 500 nM
O=C(Nc1ccc(N2CCC(O)(c3ccccc3)CC2)nc1)c1oc(-c2ccccc2)nc1C(F)(F)F [Compound 78] | 101 to 500 nM
O=C(Nc1ccc(N2CCC(O)(c3ccccc3)CC2)nc1)c1nc(-c2ccccc2)oc1C(F)(F)F [Compound 82] | 101 to 500 nM
O=C(Nc1ccc(N2CCC(CCc3ccccc3)CC2)nc1)c1oc(-c2ccccc2)nc1C(F)(F)F [Compound 151] | 101 to 500 nM
O=C(Nc1ccc(N2CCC(=O)N(Cc3ccccc3)CC2)nc1)c1oc(-c2ccccc2)nc1C(F)(F)F [Compound 157] | 101 to 500 nM
O=C(Nc1ccc(N2CCN(C(=O)C(O)Cc3ccccc3)CC2)nc1)c1oc(-c2ccccc2)nc1C(F)(F)F (centres unmarked) [Compound 171] | 11 to 100 nM
O=C(O)CC(O)(C(=O)N1CCN(c2ccc(NC(=O)c3oc(-c4ccccc4)nc3C(F)(F)F)cn2)CC1)C(F)(F)F (centres unmarked) [Compound 172] | 11 to 100 nM
O=C(Nc1ccc(N2CCN(C(=O)C(O)c3ccc4c(c3)OCO4)CC2)nc1)c1oc(-c2ccccc2)nc1C(F)(F)F (centres unmarked) [Compound 176] | 11 to 100 nM
O=C(Nc1ccc(N2CCCN(C(=O)[C@H](O)c3ccccc3)CC2)nc1)c1oc(-c2ccccc2)nc1C(F)(F)F [Compound 179] | 11 to 100 nM
O=C(Nc1ccc(N2CCCN(C(=O)[C@H](O)C3CCCCC3)CC2)nc1)c1oc(-c2ccccc2)nc1C(F)(F)F [Compound 180] | 11 to 100 nM
O=C(Nc1ccc(N2CCCN(C(=O)C(O)C(F)(F)F)CC2)nc1)c1oc(-c2ccccc2)nc1C(F)(F)F (centres unmarked) [Compound 181] | 11 to 100 nM
O=C(Nc1ccc(N2CCCN(C(=O)[C@H](O)c3ccc(F)c(F)c3)CC2)nc1)c1oc(-c2ccccc2)nc1C(F)(F)F [Compound 182] | 11 to 100 nM

Second part, the molecule after the results:

IC50 | Compound
11 to 100 nM | O=C(Nc1ccc(N2CCN(Cc3ccccc3)C(=O)C2)nc1)c1oc(-c2ccccc2)nc1C(F)(F)F [Compound 62]
11 to 100 nM | O=C(Nc1ccc(N2CCC(OCc3ccccc3)CC2)nc1)c1oc(-c2ccccc2)nc1C(F)(F)F [Compound 153]
11 to 100 nM | O=C(Nc1ccc(N2CCC(C(O)c3ccccc3)CC2)nc1)c1oc(-c2ccccc2)nc1C(F)(F)F (centres unmarked) [Compound 155]
11 to 100 nM | O=C(Nc1ccc(N2CCN(C(=O)C(O)C(F)(F)F)CC2)nc1)c1oc(-c2ccccc2)nc1C(F)(F)F (centres unmarked) [Compound 164]
11 to 100 nM | O=C(Nc1ccc(N2CCN(C(=O)[C@H](O)c3ccccc3)CC2)nc1)c1oc(-c2ccccc2)nc1C(F)(F)F [Compound 165]
11 to 100 nM | O=C(Nc1ccc(N2CCN(C(=O)C(O)c3ccc(Cl)cc3)CC2)nc1)c1oc(-c2ccccc2)nc1C(F)(F)F (centres unmarked) [Compound 168]
11 to 100 nM | O=C(Nc1ccc(N2CCN(C(=O)[C@H](O)C3CCCCC3)CC2)nc1)c1oc(-c2ccccc2)nc1C(F)(F)F [Compound 169]
11 to 100 nM | O=C(Nc1ccc(N2CCN(C(=O)[C@@H](O)C3CCCCC3)CC2)nc1)c1oc(-c2ccccc2)nc1C(F)(F)F [Compound 170]
